Test system: phospho-Tau (S202,T205) in SH-SY5Y neuroblastoma cells
Experiment: Okadaic acid-induced p-Tau accumulation in SH-SY5Y cells, co-incubation (AT8 immunoblot)
Format: cell-based
Settings: 100 nM OA alone, 3 h
Method: Reproducible hyperphosphorylated p-Tau accumulation can be induced in the SH-SY5Y neuroblastoma cell line following incubation with Okadaic Acid (OA), a small molecule inhibitor of protein phosphatase 2A (PP2A), according to the method described by Boban et al., J Neurosci Methods., S0165-0270(18)30297-8 (2018). In this experiment, SH-SY5Y cells were incubated with 100 nM OA alone or in combination with 2,4-DSPBN+NAC for three hours prior to harvesting the cells for immunoblot evaluations with the AT8 phospho-Tau (S202,T205) antibody or the housekeeping protein, GAPDH. […] Two doses of combinatorial 2,4-DSPBN+NAC (185 μM 2,4-DSPBN/500 μM NAC or 93 μM 2,4-DSPBN/250 μM NAC) were used in this experiment, each of which used a molar ratio that mimics the equal mass:mass ratios used in the in vivo studies (i.e. a 1:1 mass ratio of 2,4-DSPBN and NAC is equivalent to a 1:2.7 molar ratio).
Biological and technical replicates of the experiment described in FIG. 3 were conducted, and p-Tau(S202,T205) immunoblots (AT8 antibody) were subjected to densitometric evaluations of relative protein levels, using National Institutes of Health ImageJ software and the internal GAPDH protein standard. […]

Compound: C=C1[C@@H](O)[C@@H]2O[C@]3(CC[C@H](/C=C/[C@@H](C)[C@@H]4CC(C)=C[C@@]5(O[C@H](C[C@@](C)(O)C(=O)O)CC[C@H]5O)O4)O3)CC[C@H]2O[C@@H]1[C@@H](O)C[C@H](C)[C@H]1O[C@@]2(CCCCO2)CC[C@H]1C [OA, Okadaic Acid]
- phospho-Tau(S202,T205) level relative to untreated control cells (immunoblot, FIG. 3): marked phospho-Tau(S202,T205) accumulation
